Values after ≈ are worked out from the molar mass of the structure shown. Like-named read-outs stand apart in the source and are kept apart here.
Assays:
Assay in all cases: microbe, parasite or virus in culture
Design in all cases: agar dilution antibacterial assay, minimum inhibitory concentration
S. epidermidis = details: Staphylococcus epidermidis, 24 h
Method: (§1) Antibacterial activity was determined by agar dilution method according to the method as described. […], […], Staphylococcus epidermidis, Staphylococcus aureus and Bacillus subtilis were used as the tested bacteria. After incubation for 24 h at 37 °C, the MICs were calculated (Table S3).

S. pneumoniae = details: Streptococcus pneumoniae, 24 h
Method: as §1

Bacillus subtilis = details: 24 h
Method: as §1

S. pyogenes = details: Streptococcus pyogenes, 24 h
Method: as §1

S. aureus = details: Staphylococcus aureus, 24 h
Method: as §1

For `C/C=C(\N=C=S)C(=O)O[C@H]1[C@@H](O[C@H]2C[C@H](OC)[C@@](O)([C@H](C)OC(=O)C(C)C)[C@H](C)O2)[C@@H](O)[C@H]([C@@]2(O)CC(=O)C(=N)C(C(=O)O)=C2O)O[C@@H]1COC(C)=O` [compound 4, paulomycin B], the MIC (S. epidermidis; read-out: MIC 4) was 0.05 µg/mL (≈ 0.0647 µM), the MIC (S. pneumoniae; read-out: MIC 4) was 0.05 µg/mL (≈ 0.0647 µM) and the MIC (Bacillus subtilis; read-out: MIC 4) was 0.1 µg/mL (≈ 0.129 µM). It also gave an MIC (S. pyogenes; read-out: MIC 4) of 0.025 µg/mL (≈ 0.0324 µM) and an MIC (S. aureus; read-out: MIC 4) of 0.1 µg/mL (≈ 0.129 µM).

For `CC=C(N=C=S)C(=O)OCC1OC(C2(O)CC(=O)C(N)=C(C(=O)O)C2=O)C(O)C(OC2CC(OC)C(O)(C(C)OC(=O)C(C)C)C(C)O2)C1O` (stereo not shown) [compound 8, 8], the MIC (S. epidermidis; read-out: MIC 8) was > 100 µg/mL, the MIC (S. pneumoniae; read-out: MIC 8) was > 100 µg/mL and the MIC (Bacillus subtilis; read-out: MIC 8) was > 100 µg/mL. For the same compound, the MIC (S. pyogenes; read-out: MIC 8) was > 50 µg/mL and the MIC (S. aureus; read-out: MIC 8) was > 100 µg/mL.

For `CC=C(N=C=S)C(=O)OCC1OC(C2(O)CC(=O)C(N)=C(C(=O)O)C2=O)C(O)C(OC2CC(OC)C(O)(C(C)=O)C(C)O2)C1O` (stereo not shown) [compound 10, 10], the MIC (S. epidermidis; read-out: MIC 10) was > 100 µg/mL, the MIC (S. pneumoniae; read-out: MIC 10) was > 100 µg/mL and the MIC (Bacillus subtilis; read-out: MIC 10) was > 100 µg/mL. The MIC (S. pyogenes; read-out: MIC 10) was > 100 µg/mL and the MIC (S. aureus; read-out: MIC 10) was > 100 µg/mL.

In the case of `CC=C(N=C=S)C(=O)OCC1OC(C2(O)CC(=O)C(N)=C(C(=O)O)C2=O)C(O)C(OC2CC(OC)C(O)(C(C)OC(=O)C(C)CC)C(C)O2)C1O` (stereo not shown) [compound 9, 9], the MIC (S. epidermidis; read-out: MIC 9) is reported as > 100 µg/mL, the MIC (S. pneumoniae; read-out: MIC 9) is reported as > 100 µg/mL and the MIC (Bacillus subtilis; read-out: MIC 9) is reported as > 100 µg/mL. The MIC (S. pyogenes; read-out: MIC 9) was > 50 µg/mL and the MIC (S. aureus; read-out: MIC 9) was > 100 µg/mL.

Work on `CC=C(N=C=S)C(=O)OC1C(COC(C)=O)OC(C2(O)CC(=O)C(N)=C(C(=O)O)C2=O)C(O)C1OC1CC(OC)C(O)(C(C)OC(=O)C(C)CC)C(C)O1` (stereo not shown) [compound 3, 3] yielded an MIC (S. epidermidis; read-out: MIC 3) of 0.05 µg/mL (≈ 0.0635 µM), an MIC (S. pneumoniae; read-out: MIC 3) of 0.05 µg/mL (≈ 0.0635 µM) and an MIC (Bacillus subtilis; read-out: MIC 3) of 0.1 µg/mL (≈ 0.127 µM). For the same compound, the MIC (S. pyogenes; read-out: MIC 3) was 0.025 µg/mL (≈ 0.0318 µM) and the MIC (S. aureus; read-out: MIC 3) was 0.1 µg/mL (≈ 0.127 µM).
